According to PMC3223730, “A nuclear magnetic resonance based approach to accurate functional annotation of putative enzymes in the methanogen Methanosarcina acetivorans” (BMC Genomics, 2011):

How the values were obtained:
MA3706 = target: T1, MA3706 (Methanosarcina acetivorans, UniProt Q8TJS1); assay: isothermal titration calorimetry; type: binding; details: read-out: dissociation constant
T1 construct: gene MA_3706; removal not described), expressed in E. coli BL21(DE3) Rosetta, Ni-NTA purified

MA4265 = target: T2, MA4265 (Methanosarcina acetivorans, UniProt Q8TI91); assay: waterLOGSY 1H NMR; type: binding; details: 300 μM ligand, 30 μM protein; 50 mM sodium phosphate, 100 mM NaCl, pH 7.0; 5 or 25 °C
T2 construct: gene MA_4265; removal not described), expressed in E. coli at 25°C, Ni-NTA purified
T2 sequence (Q8TI91 1-342): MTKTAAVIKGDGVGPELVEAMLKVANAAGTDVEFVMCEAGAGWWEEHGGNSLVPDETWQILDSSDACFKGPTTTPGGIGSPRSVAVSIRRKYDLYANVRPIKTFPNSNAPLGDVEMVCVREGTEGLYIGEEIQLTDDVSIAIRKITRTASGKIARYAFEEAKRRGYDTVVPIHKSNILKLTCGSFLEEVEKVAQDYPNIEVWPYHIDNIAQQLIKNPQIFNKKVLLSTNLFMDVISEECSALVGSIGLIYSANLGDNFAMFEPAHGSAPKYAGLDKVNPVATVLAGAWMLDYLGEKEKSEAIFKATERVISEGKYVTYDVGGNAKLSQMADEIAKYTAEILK

T1 sequence (Q8TJS1 whole entry): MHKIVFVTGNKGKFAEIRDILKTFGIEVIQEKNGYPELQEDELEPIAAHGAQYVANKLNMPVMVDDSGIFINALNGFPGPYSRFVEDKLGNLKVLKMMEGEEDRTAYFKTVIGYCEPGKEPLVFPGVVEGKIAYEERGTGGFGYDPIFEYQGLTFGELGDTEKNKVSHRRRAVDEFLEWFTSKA

Molecule `O=P(O)(O)OP(=O)(O)OP(=O)(O)OC[C@H]1O[C@@H](n2cnc3c(O)ncnc32)[C@H](O)[C@@H]1O` [ITP] has a Kd (MA3706) of 7.8 µM.
With `O=C(O)C[C@H](C(=O)O)[C@@H](O)C(=O)O` [isocitrate] the “waterLOGSY 1H NMR” value (MA4265) was “Only isocitrate binds to MA4265 under the conditions used”.
